# Laboratory results taken from US8088930B2, “Benzimidazole derivatives” (Hoffmann-La Roche Inc., priority 2008, dated 2012).
# Target: T1, FXR ligand binding domain (GST-FXR LBD fusion protein, human FXR aa 193-473) (Homo sapiens, UniProt Q96RI1)
# T1 construct: fused on or other part: Glutathione-S-transferase (GST) fused N-terminally to the FXR LBD, used to capture the protein on glutathione SPA beads
# T1 sequence (Q96RI1 211-486 limits assumed): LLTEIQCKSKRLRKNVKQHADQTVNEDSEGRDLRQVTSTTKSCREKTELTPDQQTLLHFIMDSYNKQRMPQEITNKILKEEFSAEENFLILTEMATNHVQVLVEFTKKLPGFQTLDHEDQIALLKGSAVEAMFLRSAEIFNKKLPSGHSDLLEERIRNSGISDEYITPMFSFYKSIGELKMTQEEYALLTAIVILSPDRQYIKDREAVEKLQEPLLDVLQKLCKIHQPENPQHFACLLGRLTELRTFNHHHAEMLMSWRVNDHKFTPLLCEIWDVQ
# Test: Radioligand binding assay (scintillation proximity, radioligand displacement)
# Conditions: 40 nM GST-FXR LBD on SPA beads, test compound 6×10^−9 M to 2.5×10^−5 M, read-out: h-IC50 Binding
# Procedure, shortened: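 40 nM GST-FXR LBD, E. coli-expressed, bound to glutathione yttrium silicate SPA beads in 50 mM Hepes pH 7.4, 10 mM NaCl, 5 mM MgCl2, 0.01% CHAPS. Test compounds displace radioligand (e.g. 20 nM benzimidazolyl-acetamide ligand); bound ligand measured by scintillation proximity counting.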
row,SMILES,IC50 [nM]
1,"Fc1cc2nc(-c3ccc(Cl)cc3)n(C(COc3ccc(-c4nnn[nH]4)cn3)C3CCCCC3)c2cc1F (centres unmarked) [Example 56, 2-(4-Chloro-phenyl)-1-{1-cyclohexyl-2-[5-(1H-tetrazol-5-yl)-pyridin-2-yloxy]-ethyl}-5,6-difluoro-1H-benzoimidazole]",50
2,"CC(C)(OCc1ccc(C(=O)O)cc1)C(C1CCCCC1)n1c(-c2ccc(Cl)cc2)nc2cc(F)c(F)cc21 (centres unmarked) [Example 57, 4-{2-[2-(4-Chloro-phenyl)-5,6-difluoro-benzoimidazol-1-yl]-2-cyclohexyl-1,1-dimethyl-ethoxymethyl}-benzoic acid]",100
3,"O=C(O)c1ccc(COCC(C2CCCCC2)n2c(-c3ccc(Cl)cc3)nc3cc(F)c(F)cc32)cc1 (centres unmarked) [Example 58, 4-{2-[2-(4-Chloro-phenyl)-5,6-difluoro-benzoimidazol-1-yl]-2-cyclohexyl-ethoxymethyl}-benzoic acid]",100
4,"O=C(O)c1ccc(COCC(C2CCCCC2)n2c(-c3ccc(Cl)cc3)nc3cc(F)c(F)cc32)c(F)c1 (centres unmarked) [Example 59, 4-{2-[2-(4-Chloro-phenyl)-5,6-difluoro-benzoimidazol-1-yl]-2-cyclohexyl-ethoxymethyl}-3-fluoro-benzoic]",60
5,"COc1cc(C(=O)O)ccc1COCC(C1CCCCC1)n1c(-c2ccc(Cl)cc2)nc2cc(F)c(F)cc21 (centres unmarked) [Example 60, 4-{2-[2-(4-Chloro-phenyl)-5,6-difluoro-benzoimidazol-1-yl]-2-cyclohexyl-ethoxymethyl}-3-methoxy-benzoic acid]",500
6,"Cc1cc(OCC(C2CCCCC2)n2c(-c3ccc(Cl)cc3)nc3cc(F)c(F)cc32)cc(C)c1C(=O)O (centres unmarked) [Example 61, 4-{2-[2-(4-Chloro-phenyl)-5,6-difluoro-benzoimidazol-1-yl]-2-cyclohexyl-ethoxy}-2,6-dimethyl-benzoic acid]",1400
7,"Fc1cc2nc(-c3ccc(Cl)cc3)n(C(COc3ccc(-c4nnn[nH]4)cc3F)C3CCCCC3)c2cc1F (centres unmarked) [Example 66, 2-(4-Chloro-phenyl)-1-{1-cyclohexyl-2-[2-fluoro-4-(1H-tetrazol-5-yl)-phenoxy]-ethyl}-5,6-difluoro-1H-benzoimidazole]",10
8,"O=C(O)c1ccc(COCC(C2CCCCC2)n2c(-c3ccc(Cl)cc3)nc3cc(F)c(F)cc32)nc1 (centres unmarked) [Example 67, 6-{2-[2-(4-Chloro-phenyl)-5,6-difluoro-benzoimidazol-1-yl]-2-cyclohexyl-ethoxymethyl}-nicotinic acid]",2500
9,"Cc1cc(-c2nnn[nH]2)cc(C)c1OCC(C1CCCCC1)n1c(-c2ccc(Cl)cc2)nc2cc(F)c(F)cc21 (centres unmarked) [Example 70, 2-(4-Chloro-phenyl)-1-{1-cyclohexyl-2-[2,6-dimethyl-4-(1H-tetrazol-5-yl)-phenoxy]-ethyl}-5,6-difluoro-1H-benzoimidazole]",10
10,"COc1ccc(-c2nc3cc(F)c(F)cc3n2C(COc2ccc(C(=O)O)cn2)C2CCCCC2)c(OC)n1 (centres unmarked) [Example 73, 6-{2-Cyclohexyl-2-[2-(2,6-dimethoxy-pyridin-3-yl)-5,6-difluoro-benzoimidazol-1-yl]-ethoxy}-nicotinic acid]",100
11,"O=C(O)c1cc(F)c(OCC(C2CCCCC2)n2c(-c3ccc(Cl)cc3)nc3cc(F)c(F)cc32)c(Cl)c1 (centres unmarked) [Example 76, 3-Chloro-4-{2-[2-(4-chloro-phenyl)-5,6-difluoro-benzoimidazol-1-yl]-2-cyclohexyl-ethoxy}-5-fluoro-benzoic acid]",4
12,"CC(OCC(C1CCCCC1)n1c(-c2ccc(Cl)cc2)nc2cc(F)c(F)cc21)c1ccc(C(=O)O)cc1 (centres unmarked) [Example 79, 4-(1-{2-[2-(4-Chloro-phenyl)-5,6-difluoro-benzoimidazol-1-yl]-2-cyclohexyl-ethoxy}-ethyl)-benzoic acid]",600

# Second part, the compound after the results:
row,IC50 [nM],SMILES
1,1,"COc1ccc(-c2nc3cc(F)c(F)cc3n2C(COc2c(C)cc(C(=O)O)cc2C)C2CCCCC2)c(OC)n1 (centres unmarked) [Example 82, 4-{2-Cyclohexyl-2-[2-(2,6-dimethoxy-pyridin-3-yl)-5,6-difluoro-benzoimidazol-1-yl]-ethoxy}-3,5-dimethyl-benzoic acid]"
2,10,"O=C(O)c1cc(F)c(OCC(C2CCCCC2)n2c(-c3ccc(Cl)cc3)nc3cc(F)c(F)cc32)c(F)c1 (centres unmarked) [Example 85, 4-{2-[2-(4-Chloro-phenyl)-5,6-difluoro-benzoimidazol-1-yl]-2-cyclohexyl-ethoxy}-3,5-difluoro-benzoic acid]"
3,200,"CC(C)(Oc1ccc(OCC(C2CCCCC2)n2c(-c3ccc(Cl)cc3)nc3cc(F)c(F)cc32)cc1)C(=O)O (centres unmarked) [Example 90, 2-(4-{2-[2-(4-Chloro-phenyl)-5,6-difluoro-benzoimidazol-1-yl]-2-cyclohexyl-ethoxy}-phenoxy)-2-methyl-propionic acid]"
4,90,"Cc1cc(OCC(C2CCCCC2)n2c(-c3ccc(Cl)cc3)nc3cc(F)c(F)cc32)ccc1OCC(=O)O (centres unmarked) [Example 92, (4-{2-[2-(4-Chloro-phenyl)-5,6-difluoro-benzoimidazol-1-yl]-2-cyclohexyl-ethoxy}-2-methyl-phenoxy)-acetic acid]"
5,300,"Cc1c(OCC(C2CCCCC2)n2c(-c3ccc(Cl)cc3)nc3cc(F)c(F)cc32)ccc(OC(C)(C)C(=O)O)c1C (centres unmarked) [Example 93, 2-(4-{2-[2-(4-Chloro-phenyl)-5,6-difluoro-benzoimidazol-1-yl]-2-cyclohexyl-ethoxy}-2,3-dimethyl-phenoxy)-2-methyl-propionic acid]"
6,100,"CC(C)(Oc1ccc(OCC(C2CCCCC2)n2c(-c3ccc(Cl)cc3)nc3cc(F)c(F)cc32)c(F)c1)C(=O)O (centres unmarked) [Example 94, 2-(4-{2-[2-(4-Chloro-phenyl)-5,6-difluoro-benzoimidazol-1-yl]-2-cyclohexyl-ethoxy}-3-fluoro-phenoxy)-2-methyl-propionic acid]"
7,600,"CC(C)(Oc1cccc(OCC(C2CCCCC2)n2c(-c3ccc(Cl)cc3)nc3cc(F)c(F)cc32)c1)C(=O)O (centres unmarked) [Example 95, 2-(3-{2-[2-(4-Chloro-phenyl)-5,6-difluoro-benzoimidazol-1-yl]-2-cyclohexyl-ethoxy}-phenoxy)-2-methyl-propionic acid]"
8,2,"COc1ccc(-c2nc3cc(F)c(F)cc3n2C(COc2c(F)cc(C(=O)O)cc2F)C2CCCCC2)c(OC)n1 (centres unmarked) [Example 96, 4-{2-Cyclohexyl-2-[2-(2,6-dimethoxy-pyridin-3-yl)-56-difluoro-benzoimidazol-1-yl]-ethoxy}-3,5-difluoro-benzoic acid]"
9,2,"COc1ccc(-c2nc3cc(F)c(F)cc3n2C(COc2c(C)cc(-c3nnn[nH]3)cc2C)C2CCCCC2)c(OC)n1 (centres unmarked) [Example 99, 1-{1-cyclohexyl-2-[2,6-dimethyl-4-(1H-tetrazol-5-yl)-phenoxy]-ethyl}-2-(2,6-dimethoxy-pyridin-3-yl)-5,6-difluoro-1H-benzoimidazole]"
10,30,"O=C(O)c1cc(F)c(OCC(C2CCCCC2)n2c(-c3ccc(Cl)cc3)nc3ccccc32)c(F)c1 (centres unmarked) [Example 102, 4-{2-[2-(4-Chloro-phenyl)-benzoimidazol-1-yl]-2-cyclohexyl-ethoxy}-3,5-difluoro-benzoic acid]"
11,40,"Cc1cc(C(=O)O)cc(C)c1OCC(C1CCCCC1)n1c(-c2ccc(Cl)cc2)nc2ccccc21 (centres unmarked) [Example 105, 4-{2-[2-(4-Chloro-phenyl)-benzoimidazol-1-yl]-2-cyclohexyl-ethoxy}-3,5-dimethyl-benzoic acid]"
12,10,"O=C(O)c1cc(F)c(OCC(C2CCCCC2)n2c(-c3ccc(Cl)cc3)nc3ccccc32)c(Cl)c1 (centres unmarked) [Example 108, 3-Chloro-4-{2-[2-(4-chloro-phenyl)-benzoimidazol-1-yl]-2-cyclohexyl-ethoxy}-5-fluoro-benzoic acid]"
13,20,"Cc1cc(-c2nnn[nH]2)cc(C)c1OCC(C1CCCCC1)n1c(-c2ccc(Cl)cc2)nc2ccccc21 (centres unmarked) [Example 111, 2-(4-Chloro-phenyl)-1-{1-cyclohexyl-2-[2,6-dimethyl-4-(1H-tetrazol-5-yl)-phenoxy]-ethyl}-1H-benzoimidazole]"
14,60,"O=C(O)c1cnc(OCC(C2CCCCC2)n2c(-c3ccc(Cl)cc3)nc3cc(F)c(F)cc32)c(Br)c1 (centres unmarked) [Example 114, 5-Bromo-6-{2-[2-(4-chloro-phenyl)-5,6-difluoro-benzoimidazol-1-yl]-2-cyclohexyl-ethoxy}-nicotinic acid]"
15,40,"O=C(O)C1(Oc2ccc(OCC(C3CCCCC3)n3c(-c4ccc(Cl)cc4)nc4cc(F)c(F)cc43)cc2)CCC1 (centres unmarked) [Example 117, 1-(4-{2-[2-(4-Chloro-phenyl)-5,6-difluoro-benzoimidazol-1-yl]-2-cyclohexyl-ethoxy}-phenoxy)-cyclobutanecarboxylic acid]"
16,30,"O=C(O)C1(Oc2ccc(OCC(C3CCCCC3)n3c(-c4ccc(Cl)cc4)nc4cc(F)c(F)cc43)cc2)CC1 (centres unmarked) [Example 120, 1-(4-{2-[2-(4-Chloro-phenyl)-5,6-difluoro-benzoimidazol-1-yl]-2-cyclohexyl-ethoxy}-phenoxy)-cyclopropanecarboxylic acid]"

# Same assay, conditions: h-IC50 Binding, 40 nM GST-FXR LBD on SPA beads, test compound 6×10^−9 M to 2.5×10^−5 M
row,SMILES,IC50 [nM]
1,"O=C(O)COc1ccc(OCC(C2CCCCC2)n2c(-c3ccc(Cl)cc3)nc3cc(F)c(F)cc32)cc1 (centres unmarked) [Example 91, (4-{2-[2-(4-Chloro-phenyl)-5,6-difluoro-benzoimidazol-1-yl]-2-cyclohexyl-ethoxy}-phenoxy)-acetic acid]",60
